# Reference: US20050261246A1, “Methods for treating inflammatory and autoimmune diseases” (priority 2004, published 2005)
# Columns and labels:
# [1] = tested on: VEGF production in human cancer cell lines; assay: VEGF production in human cancer cell lines (ELISA); assay type: cell-based
# Procedure: (A) Effect of SNS on VEGF production was analyzed in two cancer cell lines (both supernatants and cell lysates). (B) The supernatant from control and drug treated H460 cells was analyzed for the level of VEGF (pg/ml). C. […] Statistical analyses were performed using one-way ANOVA.
# As discussed above, SNS and pancratastatin were originally synthesized as an anti-cancer agent. The inventors also examined the effect of SNS and pancratastatin on the production of VEGF in human cancer cell lines (FIG. 2). […] This analysis had been performed at least 3-5 times depending on the cell lines and drug used, with statistical analysis performed using one-way ANOVA.
# [2] = tested on: NO production in LPS-stimulated RAW 264.7 cells; assay: NO production in LPS-stimulated RAW264.7 macrophage cell line (Griess reaction); assay type: cell-based, mouse; details: pre-treated with different concentrations, then 1 ng/ml LPS
# Procedure: Cells were pre-treated with different concentrations of SNS and then followed by stimulation with LPS. C is medium control. LPS, positive control without SNS treatment. The statistical analysis was performed using one-way ANOVA.
# In further tests, we investigated the effect of SNS on the production of NO in a mouse macrophage cell line, RAW264.7. Cells were pre-treated with different concentrations of SNS and subsequently stimulated with 1 ng/ml of LPS. The level of NO production was measured by a spectrophotographic method using the Griess reaction. […] “C” is medium control, and “LPS” is positive control without SNS treatment. This analysis had been performed at least 3-5 times depending on the cell lines and drug used, with statistical analysis performed using one-way ANOVA.
# [3] = Body weight and tolerability in arthritic and non-arthritic rats of the AA study; assay type: in vivo, rat
# Excerpt: Adult male Lewis rats (200-250 g) were purchased from Charles River Laboratories, Raleigh, N.C. and housed two per cage. The animals were allowed to acclimate to the Sun Health Research Institute's vivarium for 7 days prior to the start of the experiment. The animals were maintained on a 12-h off/on light schedule. For AA rats rodent Diet (Purina Lab Diet 5001) was placed in the bottom of the cage and water was supplied using long-stemmed sipper tubes for easy access to food and water. […] Animals were weighed and observed daily to ensure adequate weight gain and good general health. Body weights and footpad measures were started 1 week prior to the first adjuvant injection to acclimate the animals to these mild stresses and obtain baseline data. Other than the development of arthritis, the good health of the animals was maintained throughout the course of the experiments. Protocols for the use and care of the animals in the study were approved prior to beginning the experiments by the Sun Health Research Institute Animal Use and Care Committee and complied with NIH guidelines for the humane use and care of research animals. Dorsoplantar footpad measurements were completed every other day. Prior to sacrifice the animals were given a 1.0 ml intraperitoneal (i.p.) injection of 8% chloral hydrate in sterile saline and radiographs were taken of their hind limbs to assess disease severity. The animals were then sacrificed using an overdose of chloral hydrate.
# Lewis rats were randomly assigned into five experimental groups of four animals per group. The experimental groups were 1) saline/M. Butyricum suspended in saline (non-arthritic; control for drug and antigen challenge), 2) sodium narcistatin/M. Butyricum suspended in saline (non-arthritic; drug control for antigen challenge), 3) no treatment-CFA (arthritic; control for stress of injections), 4) saline-CFA (arthritic; control for drug treatment), and 5) sodium-narcistatin-CFA (arthritic) treatments. The experiment was completed with an N=4 then repeated with an additional N=4. […]
# [4] = tested on: splenic myeloid cells (CD11b+), T and B cells; assay: Splenic cell populations in SNS-treated rats (immunostaining, flow cytometry); assay type: in vivo, rat
# Procedure: B. Summary of myeloid cells (CD11b+ cells) present in various treatment groups. The statistical analysis was performed using t-test (*, N=4). SMB-saline, saline treated, non-arthritic, mycobacterium challenged; SMB-SNS, SNS treated, non-arthritic, mycobacterium challenged; CFA-saline, arthritic Saline treated; CFA-No-RX, arthritic no treatment (stress control); CFA-SNS, SNS treated arthritic. The experimental groups are the same as those in FIGS. 4-7.
# One of characteristics of inflammatory response is an elevation of myeloid cells. […] The cells were stained with fluorescence-conjugated antibodies specific to CD3, CD45R, and CD11b, followed by analyses using flow cytometry to reveal T, B, and myeloid cells, respectively. Lymphoid and myeloid cells were distinguished based on their differing forward and side scatter patterns.
# TNFα production = TNFα production from splenic cultures of Balb/c mice treated with SNS; assay type: in vivo, mouse; details: non-CAIA Balb/c mice treated 5 days, p<0.01
# Procedure: Balb/c mice (n=5) were treated i.p. with SNS at 5 mg/Kg or with PBS for 5 consecutive days. Spleen were isolated on the next day after the last SNS injection and the splenocytes were stimulated with anti-CD3 antibody or LPS for 24 hrs, and supernatant were analyzed for TNF-α production.
# Isolated splenic cells were cultured with either immobilized […] (50 ug/ml) or 1 ug/ml LPS for […]. Cells without any stimulation were included as control. The supernatants from these cultures were analyzed for TNFα using BD™ CBA Mouse Inflammatory Kit (BD Biosciences), according to the manufacture's procedure. The average TNF concentration in each culture was derived from 2-3 independent experiments of 4-5 mice per group per experiment. No arthritis was induced in these experiments. […] Thus, TNFα production was reduced in the splenic culture of SNS-treated mice, in response to T cell activation by anti-CD3 antibody.
structure (smiles),measurement,setting,value
"O=C1N[C@@H]2C(=C[C@H](O)[C@H]3OP(=O)(O)O[C@H]32)c2cc3c(c(O)c21)OCO3 [SNS, sodium narcistatin]","VEGF production, narcistatin compared with pancratistatin",[1],comparable inhibition on VEGF production
same,effect on VEGF production/secretion,"[1]; human cancer cell lines, ELISA",significantly suppresses the secretion of VEGF
same,NO production,[2],concentration-dependent inhibition of NO production
same,"tolerability / overt toxicity, arthritic rats",[3]; body weights and gross evaluation of internal organs at end point,no general signs of overt toxicity were apparent
same,"body weight, non-arthritic control rats","[3]; day 28, chronic treatment, vs saline-treated non-arthritic controls, P<0.001",significantly decreased body weights
same,"body weight, arthritic rats","[3]; day 28, vs untreated or saline-treated arthritic rats",not significantly different
same,splenic myeloid population (CD11b+ cells),"[4]; rats of the AA study, especially SNS/non-arthritic group",greatly reduced this myeloid population
same,numbers of splenic T and B lymphocytes,[4]; various treatment groups,comparable numbers of T and B lymphocytes
same,TNFα in splenic cultures stimulated with anti-CD3,TNFα production,significant reduction of TNFα
